US20160244453A1, “TREATMENT OF VIRAL AND INFECTIOUS DISEASES USING AN INHIBITOR OF CBP/CATENIN” (PRISM PHARMA CO., LTD., priority 2013, published 2016)

Key:
Type in all cases: cell-based
LC3B = assay: Autophagy induction in macrophages, LC3B immunoblotting
Text: Microtubule-associated protein 1A/1B-light chain 3 (LC3) is a soluble protein that is distributed ubiquitously in mammalian tissues and cultured cells (reviewed in Methods Mol. Biol. 445, 77-88 (2008). During autophagy, autophagosomes engulf cytoplasmic components, including cytosolic proteins and organelles. Concomitantly, a cytosolic form of LC3 (LC3-I) is conjugated to phosphatidylethanolamine to form LC3-phosphatidylethanolamine conjugate (LC3-II), which is recruited to autophagosomal membranes. Autophagosomes fuse with lysosomes to form autolysosomes, and intra-autophagosomal components are degraded by lysosomal hydrolases. At the same time, LC3-II in autolysosomal lumen is degraded. Thus, lysosomal turnover of the autophagosomal marker LC3-II reflects starvation-induced autophagic activity, and detecting LC3 by immunoblotting or immunofluorescence is an indicator of autophagy and autophagy-related processes, including autophagic cell death.
(§1) For these studies, macrophages were exposed to rapamycin 100 nM (a known inducer of autophagic flux), proteins were extracted and subjected to immunoblotting.
During autophagy, LC3B (LC3B-I) forms LC3B-phosphatidylethanolamine conjugate (LC3B-II), which is recruited to autophagosomal membranes. When there is autophagic flux there is lipidation of LC3B-I that results in conversion of LC3B-II. Thus, during autophagic flux the relative quantity of LC3B-II is increased compared to LC3B-I.

[1] = tested on: Sequestome 1/p62 (SQSTM1); assay: Autophagic flux in macrophages, SQSTM1/p62 immunoblotting; conditions: Compound A 1 and 2 μM, rapamycin 100 nM, immunoblot
Description: as §1
In addition, the inventors looked at another marker of autophagic flux (sequestosome 1, also called SQSTIM1 or p62). During active autophagy, SQSTIM1 is degraded (decreased).

CD4 Tscm = assay: In vitro culture assay of sorted CD4 Tscm, phenotype by flow cytometry; conditions: 10 d incubation with rhIL-15; compared to control experiments
Description: (§2) PBMC were stained with monoclonal antibodies directed against CD4, CD3, CD45RA, CCR7, CD62L, CD122, CD95, according to standard protocols. After 20 minutes, CCR7+ CD45RA+ naïve CD4 T cells, CCR7+ CD45RA− central-memory CD4 T cells (CD4 Tcm), CCR7− CD45RA− CD4 T cells, CCR7− CD45RA+ terminally-differentiated CD4 T cells (CD4 Ttd) and CCR7+ CD45RA+ CD62L+ CD95+ CD122+ T memory stem cell CD4 T cells (CD4 Tscm) were live sorted in a specifically designated biosafety cabinet (Baker Hood), using a FACS Aria cell sorter (BD Biosciences) at 70 pounds per square inch. For phenotypic characterization, cells were additionally stained with CCR5 or CXCR4 antibodies, or Annexin V, and acquired on a LSRII flow cytometer (BD Biosciences). Data were analyzed using FlowJo software (Treestar).
(§3) Selected CD4 T cell subsets were isolated by cell sorting, labeled cells with 2 μM CFSE for 7 min at 37° C., and incubated with rhIL-15 (25 ng/ml; Peprotech) for 10 d in the presence or absence of Compound C, (6S,9S,9aS)-N-benzyl-6-(4-hydroxybenzyl)-2,9-dimethyl-4,7-dioxo-8-(quinolin-8-ylmethyl)octahydro-1H-pyrazino[2,1-c][1,2,4]triazine-1-carboxamide (Prism Biolabs). Afterwards, cells were harvested and phenotypically characterized by flow cytometry. […]

CD4 Tcm = assay: In vitro culture assay of sorted CD4 Tcm, phenotype by flow cytometry; conditions: 10 d incubation with rhIL-15; compared to control experiments
Description: as §2, §3

HIV = HIV replication in macrophages, HIV p24 antigen released into culture supernatants; conditions: macrophages pretreated 24 hours; infection monitored 10 days; concentrations 100 pM to 2 μM
Description: For these experiments, peripheral blood mononuclear cells (PBMCs) were isolated from HIV seronegative donors and differentiated into macrophages for 7-10 days using methods previously described (J Biol Chem 286: 18890-18902 (2011); PLoS Pathogens 8(5):e1002689 pp 1-13 (2012); PLoS Pathogens 8(11):e1003017 (2012)). The macrophages were pretreated for 24 hours with Compound C, which is the β-catenin inhibitor (6S,9S,9aS)-N-benzyl-6-(4-hydroxybenzyl)-2,9-dimethyl-4,7-dioxo-8-(quinolin-8-ylmethyl)octahydro-1H-pyrazino[2,1-c][1,2,4]triazine-1-carboxamide. Macrophages were treated with Compound C at increasing concentrations and productive infection was monitored for 10 days by detection of HIV p24 antigen released into the culture supernatants.

| SMILES | induction of autophagy (LC3B; 1 and 2 μM) | levels of LC3B II and LC3B I relative to negative control (LC3B; Compound A 2 μM, rapamycin 100 nM, immunoblot) | amount of LC3B II and LC3B I relative to negative control (LC3B; Compound A 1 and 2 μM, rapamycin 100 nM, immunoblot) | SQSTM1 (p62) levels relative to negative control [1] | differentiation of Tscm into more mature CCR7− CD62L− CD4 T cell populations (CD4 Tscm) | differentiation of Tcm into more mature CCR7− CD62L− CD4 T cell populations (CD4 Tcm) | HIV replication (HIV p24 antigen) (HIV) |
| --- | --- | --- | --- | --- | --- | --- | --- |
| C[C@H]1[C@H]2N(C(=O)CN(C)N2C(=O)NCc2ccccc2)[C@@H](Cc2ccc(OP(=O)(O)O)cc2)C(=O)N1Cc1cccc2cccnc12 [Compound A, 4-(((6S,9S,9aS)-1-(benzylcarbamoyl)-2,9-dimethyl-4,7-dioxo-8-(quinolin-8-ylmethyl)octahydro-1H-pyrazino[2,1-c][1,2,4]triazin-6-yl)methyl)phenyl dihydrogen phosphate] | induces autophagy | greatly reduced | increased amount of LC3B II and decreased amount of LC3B I | reduced | – | – | – |
| C[C@H]1[C@H]2N(C(=O)CN(C)N2C(=O)NCc2ccccc2)[C@@H](Cc2ccc(O)cc2)C(=O)N1Cc1cccc2cccnc12 [Compound C, (6S,9S,9aS)-N-benzyl-6-(4-hydroxybenzyl)-2,9-dimethyl-4,7-dioxo-8-(quinolin-8-ylmethyl)octahydro-1H-pyrazino[2,1-c][1,2,4]triazine-1-carboxamide] | – | – | – | – | substantially facilitated differentiation | to a lesser extent | inhibits HIV in a dose dependent manner |
